Values joined by “and” are separate entries in the source; they are usually repeats but may differ in a detail not shown here. Equal values may be shown once.
What was measured:
cancer cell growth = conditions: no reference given; cited from earlier work
[1] = Phase solubility study of DAS with HP-β-CD in water (Higuchi-Connors); format: physicochemical; conditions: 25 °C
Method: (§1) The phase solubility study was conducted in accordance with Higuchi and Connors. In detail, DAS was added in excess to an aqueous solution containing HP-β-CD in the appropriate concentration (0–10% w/v) until saturation and the suspensions thus obtained were placed in 4 mL vials with screw cap to avoid changes that are caused by evaporation. The obtained mixtures were vortexed for about 5 min and then placed in a thermostat bath at 25 °C for three days.
(§2) Subsequently, an aliquot of the aqueous phase of each mixture was transferred into a 5 mL glass syringe and filtered through a 0.22 μm cellulose acetate membrane filter (Millipore®, Milan, Italy).
(§3) The obtained filtrate was suitably diluted and subjected to subsequent HPLC analysis for the quantification of the drug. All of the determinations were conducted in triplicate.
The obtained data were used to determine the apparent stability 1:1 constant (K1:1) of the DAS/HP-β-CD inclusion complex, using the slope of the phase solubility diagrams straight line, as reported by Higuchi and Connors in the following equation:(1) K1:1=slope/S0(1−slope) where S0 represents DAS solubility in absence of cyclodextrin determined in the same way.

[2] = Pharmacokinetic analysis of DAS in quadriceps and liver after oral treatment; format: in vivo, C57Bl/6J mice; conditions: DAS/HP-β-CD inclusion complex 15 mg/kg in drinking water for 1 week, WT mice
Method: A total of 10 sedentary WT male mice C57Bl/6J (Charles River, Italy for Jackson Laboratories), homogeneous for age and body weight (BW) were divided into 2 groups as follows: 4 WT mice vehicle-treated (HP-β-CD 10%) and 6 WT mice treated with DAS/HP-β-CD inclusion complex at the dose of 15 mg/Kg. Drug and vehicle were administered in drinking water for 1 week.
In detail, analysis was performed in quadriceps (Quad) and livers of treated animals. Tissues were individually weighed into a "FastPrep" tube and PBS was added (3:1 ratio). Each tube was placed in the fast prep homogenizer on a predetermined 1min cycle to ensure complete homogenization. 40 µL of each homogenate was aliquoted to a fresh tube and 50 µL of MeOH plus 150 µL of Methanol-containing Internal standard (25 ng/mL Imipramine HCl) was added. Each sample was mixed on a Bioshake for 1 min and then transferred to the freezer at −20 °C for at least two hours prior centrifugation at 2500 × g for 20 min. The supernatants were then transferred to a 96-well plate for sampling by the LC-MS/MS. A Thermo TSQ Quantiva with Thermo Vanquish UHPLC system was used (Thermo Fisher Scientific Inc, Milan, Italy). […] Quantitative analysis was conducted by MRM at 232.06 to 401.11 m/z for DAS inclusion complex and at 86.10 to 193.04 m/z for the internal standard Imipramine. […]

C2C12 cells = experiment: Cytotoxicity / cell viability (CCK-8); format: cell-based, murine; conditions: C2C12 myoblasts, 0.1–100 μM, 5 h treatment
Method: C2C12 myocytes were cultured in DMEM that was supplemented with 10% fetal bovine serum, 1% penicillin, 1% streptomycin and 1% glutamine and were maintained at 37 °C in 5% CO2/95% air. Cell viability was evaluated by measuring the succinic dehydrogenases activity in the cell suspension using the cell counting Kit-8 (CCK-8) (Sigma Aldrich), which utilizes a highly water-soluble tetrazolium salt and whose detection sensitivity is higher than other tetrazolium salts.
Cells were seeded in 96-well cultures at a density of approximately 4.5 × 10^3 cells per well and then cultured for 16 h. Afterwards, the cells were treated for 5 h with free DAS (in DMSO <0.15% in order to ensure cellular vitality) or complexed with HP-β-CD, but at the same concentration calculated on the basis of the incorporation degree, both being dissolved in DMEM. Following exposure, 10 μL of CCK-8 were added into each well and then the plate was incubated for additional two hours. The absorbance at 450 nm was measured using a spectrophotometer (microplate reader Victor V31420–40; PerkinElmer, Wellesley, Massachusetts). […] The results are expressed as the percentage of the control and presented as the mean ± SD. Each data is from 24–48 replicates (wells) and 6–9 different culture dishes.

[3] = DAS solubility at 25 °C in different environments; format: physicochemical; conditions: pH 6, Water (ultrapure, pH about 6.0)
Method: as §1, §2, §3

[4] = known values, no reference given; cited from earlier work
Src-TK = test system: Src-TK; design: method as in PMID 25658745; conditions: cited from earlier work
[5] = Dissolution studies at 37 °C (BIODIS USP III apparatus); format: physicochemical; conditions: HCl 0.05 M pH 1.2, 37 °C, after approximately 420 min
Method: Dissolution experiments were performed at 37 °C using a BIODIS USP III apparatus (Varian Inc., Cary North Carolina, CA, USA), equipped with a rod stirrer maintaining a rotational speed of 100 rpm during the test. Samples of DAS or DAS/HP-β-CD solid complex, equivalent to about 2 mg of DAS, were suspended in the dissolution medium (80 mL of 0.05 M phosphate buffer at pH 7.4 or HCl 0.05 M pH = 1.2). The volume of 80 mL was chosen taking into account the HPLC quantification limit for the determination of DAS.
At predetermined time intervals, 600 µL of suspension were collected and, in order to keep constant the initial volume, 600 μL of the same dissolution medium previously thermostated at the same temperature were added. Samples were subsequently filtered using a 0.22 µm membrane filter (Millipore® cellulose acetate), and the filtrates thus obtained were subjected to HPLC analysis after appropriate dilution. For quantitative analysis the calibration curve previously constructed was used and the dissolution profiles shown correspond to the average of three determinations.

[6] = design: method as in PMID 26604135; conditions: cited from earlier work

1:1 apparent formation (complexation) constant K1:1 ([1]; DAS with HP-β-CD, from linear portion (0–6% HP-β-CD) of the phase solubility diagram): 922.13 M⁻¹ | solubility at 3 days ([1]; aqueous HP-β-CD solution, aqueous with cosolvent or surfactant or cyclodextrin, thermodynamic from solid, 6% w/v of HP-β-CD, read-out: DAS aqueous solubility in the presence of HP-β-CD): 29 µM and 14 µg/mL | solubility at 3 days ([3]; read-out: DAS Solubility): 1.33 µM | solubility at 3 days ([3]; read-out: DAS Solubility (mg/mL)): 0.000649 mg/mL | quantity of drug dissolved [5]: approximately 81%
SMILES: Cc1nc(Nc2ncc(C(=O)Nc3c(C)cccc3Cl)s2)cc(N2CCN(CCO)CC2)n1 [DAS, N-(2-chloro-6-methylphenyl)-2-[[6-[4-(2-hydroxyethyl)piperazin-1-yl]-2-methylpyrimidin-4-yl]amino]-1,3-thiazole-5-carboxamide]
IC50 values known to inhibit cancer cell growth (cancer cell growth): nM range | DAS levels in quadriceps and livers [2]: Appreciable drugs’ levels were found in quadriceps and livers | cytotoxic effect on cell viability (C2C12 cells): cytotoxic only at high concentrations | therapeutic plasma levels [4]: low µM values | inhibition of Src-TK, concentration range (Src-TK): nanomolar range | pKa [6]: 10.28

Reference: publication PMC6386909, “Dasatinib/HP-β-CD Inclusion Complex Based Aqueous Formulation as a Promising Tool for the Treatment of Paediatric Neuromuscular Disorders” (International Journal of Molecular Sciences, 2019)
